Source: patent US20080214517A1, “Modulation of the Expression of Estrogen Receptors for the Prevention or Treatment of Heart Disease” (priority 2003, published 2008)

B1: PDGF-BB: platelet-derived growth factor-BB, agonist used to stimulate PSMC migration and MAPK phosphorylation (protein, UniProt P01127 82-190, looked up)
Platelet-derived growth …: SLGSLTIAEPAMIAECKTRTEVFEISRRLIDRTNANFLVWPPCVEVQRCSGCCNNRNVQCRPTQVQLRPVQVRKIEIVRKKPIFKKATVTLEDHLACKCETVAAARPVT

Experiments:
[1] = tested on: porcine aortic endothelial cells (PAEC); assay: Chemotactic assay (modified Boyden chamber), PAEC migration; assay type: cell-based; settings: 17βE 10^−8 mol/L, 5 hours, compared to cells treated with FBS 1%
Experimental: FIG. 6: Contribution of ERα and ERβ on PAEC migration. PAEC were trypsinized and resuspended in DMEM; 2.5×10^5 cells/well of a six-well tissue culture plate were stimulated with or without antisense oligomers as described in the methods. 2.5×10^4 cells were added in the higher compartment of the modified Boyden chamber apparatus with or without antisense oligomers, and the lower chamber was filled with DMEM 1% FBS, and antibiotics with or without 17βE (10^−8 mol/L). Five hours postincubation at 37° C., the migrated cells were fixed, stained and counted by using a microscope adapted to a digitized video camera. The values are represented as relative mean of migrating cells/mm^2 from 6 chambers for each treatment. *, P<0.05 as compared to unstimulated cells; t, P<0.05 as compared to cells treated with 17βE (10^−8 mol/L).
(§1) Cell migration was evaluated using a modified Boyden 48-well microchamber kit (NeuroProbe, Cabin John, Md.). Near confluent PAEC and PSMC were rinsed with DMEM and trypsinized. Cells were resuspended in DMEM, 5% FBS, and antibiotics, and a cell count was obtained. […] The filter was then mounted on a glass slide, and migrated cells were counted using a microscope adapted to a video camera to obtain a computer-digitized image. […]

[2] = tested on: p42/44 MAPK phosphorylation; assay: Western blot of p42/44 MAPK phosphorylation in PSMC; assay type: cell-based, porcine; settings: PDGF-BB stimulation 5 minutes; 17βE 10^−8 mol/L 30-minute pretreatment
Experimental: (§2) FIG. 4: Contribution of ERα and ERβ on p42/44 and p38 MAPK activation in PSMC. PSMC were seeded at 1×10^6 cells/100-mm culture plate and grown to confluence. Cells were treated either with antisense or scrambled oligomers as described in the methods. Cells were then treated with or without 17βE (10^−8 mol/L) for 30 minutes and stimulated 5 minutes for p42/44 MAPK (A) or 30 minutes for p38 MAPK (B) with PDGF-BB. Proteins were detected by Western blot analyses. Image densitometry results are given as relative expression (%) as compared to control PBS-treated cells.
(§3) The efficiency and specificity of our antisense oligomers to prevent the expression of targeted proteins were evaluated by Western blot analyses. Culture medium of confluent PAEC and PSMC (100-mm tissue culture plate) was removed, the cells were rinsed with Dulbecco's modified eagle medium (DMEM; Life Technologies Inc., Carlsbad, Calif.) and trypsinized (trypsine-EDTA; Life Technologies). Cells were resuspended in DMEM containing 5% of fetal bovine serum (FBS) (Hyclone Laboratories, Logan, Utah) and antibiotics (penicillin and streptomycin, Sigma, St-Louis, Mo.), and a cell count was obtained with a Coulter counter Z1 (Coulter Electronics, Luton, UK). […] Plates were incubated at 4° C. for 30 minutes and scraped, and the protein concentration was determined with a Bio-Rad protein assay kit (Bio-Rad, Hercules, Calif.). […]

[3] = tested on: p42/44 MAPK phosphorylation; assay: Western blot of p42/44 MAPK phosphorylation in PAEC; assay type: cell-based, porcine; settings: 17βE 10^−8 mol/L, 5 minutes; vs PBS-treated PAEC
Experimental: (§4) FIG. 7: Contribution of ERα and ERβ on p42144 and p38 MAPK activation in PAEC. PAEC were seeded at 1×10^6 cells/100-mm culture plate and grown to confluence. Cells were treated either with antisense or scrambled oligomers as described in the methods. Cells were then treated with or without 17βE (10^−8 mol/L) for 5 minutes for p42/44 MAPK activation (A) or 30 minutes for p38 MAPK stimulation (B). Proteins were detected by Western blot analyses. Image densitometry results are given as relative expression (%) as compared to control PBS-treated cells.
as §3

[4] = tested on: porcine smooth muscle cells (PSMC); assay: Chemotactic assay (modified Boyden chamber), PSMC migration; assay type: cell-based; settings: PDGF-BB 10 ng/mL
Experimental: FIG. 3: Contribution of ERα and ERβ on PSMC migration. PSMC were trypsinized and resuspended in DMEM; 2.5×10^5 cells/well of a six-well tissue culture plate were stimulated with or without antisense oligomers as described in the methods. 2.5×10^4 cells were added in the higher compartment of the modified Boyden chamber apparatus with or without antisense oligomers, and the lower chamber was filled with DMEM 1% FBS, and antibiotics with or without PDGF-BB (10 ng/ml). Five hours postincubation at 37° C., the migrated cells were fixed, stained and counted by using a microscope adapted to a digitized video camera. The values are represented as relative mean of migrating cells from 6 chambers for each treatment. *, P<0.05 as compared unstimulated cells; †, P<0.05 as compared to cells treated with PDGF-BB; ‡, P<0.05 as compared to cells treated with 17βE (10^−8 mol/L).
as §1

p38 MAPK phosphorylation [5] = assay: Western blot of p38 MAPK phosphorylation in PSMC; assay type: cell-based, porcine; settings: PDGF-BB stimulation 30 minutes; 17βE 10^−8 mol/L 30-minute pretreatment
Experimental: as §2, §3

[6] = local delivery following coronary angioplasty in pigs; cited from earlier work
p38 MAPK phosphorylation [7] = assay: Western blot of p38 MAPK phosphorylation in PAEC; assay type: cell-based, porcine; settings: 17βE, 30 minutes stimulation; vs PBS-treated PAEC
Experimental: as §4, §3

[8] = tested on: porcine smooth muscle cells (PSMC); assay: Mitogenic assay, PSMC proliferation; assay type: cell-based; settings: 17βE (10^−8 mol/L); 72 hours
Experimental: FIG. 2: Contribution of ERα and ERβ on PSMC proliferation. PSMC were seeded at 1×10^4 cells/well and stimulated with or without antisense oligomers as described in the methods. Cells were then stimulated with or without 17βE (10^−8 mol/L) and a cell count achieved 72 hours post-treatment. The values are means of cell counts obtained from 6 wells for each treatment. *, P<0.05 as compared to day 0; t, P<0.05 as compared to control (1% FBS); *, P<0.05 as compared to cells treated with 17βE ([…]).
(§5) Confluent PAEC and PSMC were rinsed with DMEM and trypsinized. Cells were resuspended in 10 mL of DMEM, 5% FBS, and antibiotics, and a cell count was obtained by using a Coulter counter Z1. PAEC and PSMC were initially seeded at 1×10^4 cells/well of 24-well tissue culture plates stimulated for 24 hours in DMEM, 5% FBS, and antibiotics with or without antisense oligomers (10^−6 mol/L), and starved for 48 hours in DMEM, 0.1% FBS, and antibiotics with or without antisense oligomers (10^−6 mol/L daily) for Go synchronization. The cells were stimulated for 72 hours in DMEM, 1% FBS, antibiotics with or without antisense oligomers (10^−6 mol/L daily) and with or without of 17βE (10^−8 mol/L). After trypsinization, cell number was determined by using a Coulter counter Z1.

[9] = tested on: porcine aortic endothelial cells (PAEC); assay: Mitogenic assay, PAEC proliferation; assay type: cell-based; settings: 17βE 10^−8 mol/L, compared to cells treated with FBS 1%; 3 days
Experimental: FIG. 5: Contribution of ERα and ERβ on PAEC proliferation. PAEC were seeded at 1×10^4 cells/well and stimulated with or without antisense oligomers as described in the methods. Cells were then stimulated with or without 17βE (10^−8 mol/L) and a cell count achieved 72 hours post-treatment. The values are means of cell counts obtained from 6 wells for each treatment. *, P<0.05 as compared to day 0; †, P<0.05 as compared to control (1% FBS); ‡, P<0.05 as compared to cells treated with 17βE (10^−8 mol/L).
as §5

| Molecule | promotion of PAEC migration [1] [%] | p42/44 MAPK phosphorylation in PSMC (in words) [2] | increase of p42/44 MAPK phosphorylation in PAEC [3] [%] | inhibition of the chemotactic effect of PDGF-BB on PSMC (in words) ([4]; 17βE 10^−8 mol/L) | p38 MAPK phosphorylation in PSMC (in words) (p38 MAPK phosphorylation [5]) | endothelial NO synthase (eNOS) expression (in words) [6] | neointimal formation (in words) [6] | reendothelialization process (in words) [6] | increase of p38 MAPK phosphorylation in PAEC (p38 MAPK phosphorylation [7]) [%] | prevention of PSMC proliferation mediated by FBS 1% [8] [%] | enhancement of PAEC proliferation [9] [%] | increase of basal migration of PSMC ([4]; 5 hours, compared to cells treated with FBS 1%) [%] |
| --- | --- | --- | --- | --- | --- | --- | --- | --- | --- | --- | --- | --- |
| C[C@]12CC[C@@H]3c4ccc(O)cc4CC[C@H]3[C@@H]1CC[C@@H]2O [17βE, 17-beta-estradiol] | 363 | reversed | 317 | inhibited completely | reversed | improving | reducing | improving | 254 | 95 | 123 |  |
| B1 |  | increased |  |  | increased |  |  |  |  |  |  | 141 |
